Laboratory results taken from patent US10052306B2 (LUC THERAPEUTICS, INC., priority 2013, dated 2018).
pIC50: −log10 of the molar value.

Target: NR1/NR2B (Homo sapiens (Human), UniProt Q05586+Q13224)
Test: Cell assay: FDSS Ca2+ influx inhibition in HEK293 cells expressing NR1/NR2B;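 also: Fluo-8 Ca2+ signal read on Hamamatsu FDSS 6000 after glutamate, glycine and Ca2+ challenge following 10 min compound preincubation, end/baseline fluorescence ratio compared with MK801 control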
Conditions: Ca2+ influx
[1] = NR2B NAM IC50, HEK293 cells expressing NR1/NR2B
[2] = Binned Activity, HEK293 cells expressing NR1/NR2B, binned NR2B NAM IC50

NR1/NR2B, sequence (Q13224 27-1484, other chains not shown): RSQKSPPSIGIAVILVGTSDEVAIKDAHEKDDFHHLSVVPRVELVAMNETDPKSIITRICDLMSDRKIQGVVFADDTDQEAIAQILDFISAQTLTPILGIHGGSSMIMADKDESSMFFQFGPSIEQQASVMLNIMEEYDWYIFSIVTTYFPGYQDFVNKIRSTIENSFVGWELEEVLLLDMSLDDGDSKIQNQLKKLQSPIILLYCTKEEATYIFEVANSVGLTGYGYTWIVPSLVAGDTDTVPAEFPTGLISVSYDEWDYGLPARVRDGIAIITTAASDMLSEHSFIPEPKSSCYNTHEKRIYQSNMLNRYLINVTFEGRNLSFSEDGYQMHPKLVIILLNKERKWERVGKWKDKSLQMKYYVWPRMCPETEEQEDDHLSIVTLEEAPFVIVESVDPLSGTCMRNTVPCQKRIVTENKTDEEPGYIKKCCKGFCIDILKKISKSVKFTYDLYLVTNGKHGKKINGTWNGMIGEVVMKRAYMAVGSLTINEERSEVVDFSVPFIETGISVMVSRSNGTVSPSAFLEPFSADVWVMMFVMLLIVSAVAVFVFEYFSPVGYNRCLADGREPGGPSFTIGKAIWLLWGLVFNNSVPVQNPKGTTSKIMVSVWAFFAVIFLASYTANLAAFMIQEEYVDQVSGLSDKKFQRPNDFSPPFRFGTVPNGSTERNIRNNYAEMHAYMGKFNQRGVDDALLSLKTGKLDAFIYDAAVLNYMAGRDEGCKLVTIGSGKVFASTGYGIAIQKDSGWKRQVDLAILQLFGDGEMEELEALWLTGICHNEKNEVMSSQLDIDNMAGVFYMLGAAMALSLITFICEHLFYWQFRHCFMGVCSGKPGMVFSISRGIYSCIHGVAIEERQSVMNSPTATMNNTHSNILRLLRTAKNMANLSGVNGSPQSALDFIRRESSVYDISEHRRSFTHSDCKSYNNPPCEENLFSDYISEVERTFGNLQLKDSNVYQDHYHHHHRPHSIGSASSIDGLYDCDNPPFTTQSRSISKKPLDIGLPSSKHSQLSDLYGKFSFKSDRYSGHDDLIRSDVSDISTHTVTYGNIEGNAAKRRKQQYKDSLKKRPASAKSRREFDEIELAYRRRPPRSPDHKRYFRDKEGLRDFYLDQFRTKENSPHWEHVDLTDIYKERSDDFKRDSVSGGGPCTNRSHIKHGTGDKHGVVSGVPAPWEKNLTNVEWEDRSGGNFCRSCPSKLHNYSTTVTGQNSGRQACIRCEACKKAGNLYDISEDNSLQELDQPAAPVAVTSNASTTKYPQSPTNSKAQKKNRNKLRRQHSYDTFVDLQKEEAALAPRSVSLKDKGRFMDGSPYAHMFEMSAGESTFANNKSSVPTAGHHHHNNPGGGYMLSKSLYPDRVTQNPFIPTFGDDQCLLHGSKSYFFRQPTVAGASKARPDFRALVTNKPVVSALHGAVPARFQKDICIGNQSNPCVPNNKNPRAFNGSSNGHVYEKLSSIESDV

Structure (SMILES) | pIC50 [1] | pIC50 [2]
CS(=O)(=O)Nc1ccc(C(O)CN2C[C@@H]3C[C@@](O)(Cc4ccccc4)C[C@@H]3C2)cc1 (mixture of isomers) [Example 150, rac-N-(4-(2-((3aR,5r,6aS)-5-benzyl-5-hydroxyhexahydrocyclo-penta[c]pyrrol-2(1H)-yl)-1-hydroxy-ethyl)phenyl)meth-anesulfonamide] | 7.33 | 
O=C1Cc2cc(C(O)CN3C[C@@H]4C[C@@](O)(Cc5ccccc5)C[C@@H]4C3)ccc2N1 (mixture of isomers) [Example 152, rac-5-(2-((3aR,5r,6aS)-5-benzyl-5-hydroxyhexahydrocyclo-penta[c]pyrrol-2(1H)-yl)-1-hydroxyethyl)indolin-2-one] | 6.84 | 
O=C1CCc2cc(C(O)CN3C[C@@H]4C[C@@](O)(Cc5ccccc5)C[C@@H]4C3)ccc2N1 (mixture of isomers) [Example 153, rac-6-(2-((3aR,5r,6aS)-5-benzyl-5-hydroxyhexahydrocyclo-penta[c]pyrrol-2(1H)-yl)-1-hydroxyethyl)-3,4-dihydroquinolin-2(1H)-one] | 7.40 | 
O=c1[nH]c2ccc(C(O)CN3C[C@@H]4C[C@@](O)(Cc5ccccc5)C[C@@H]4C3)cc2o1 (mixture of isomers) [Example 154, rac-6-(2-((3aR,5r,6aS)-5-benzyl-5-hydroxyhexahydrocyclo-penta[c]pyrrol-2(1H)-yl)-1-hydroxyethyl)benzo[d] oxazol-2(3H)-one] | 7.28 | 
O=c1ccc(C(O)CN2C[C@@H]3C[C@@](O)(Cc4ccccc4)C[C@@H]3C2)n[nH]1 (mixture of isomers) [Example 158, rac-6-(2-((3aR,5r,6aS)-5-benzyl-5-hydroxyhexahydrocyclo-penta[c]pyrrol-2(1H)-yl)-1-hydroxyethyl)pyridazin-3(2H)-one] | ≤ 5.00 | < 5.00
Oc1c(F)cc(C(O)CN2C[C@@H]3C[C@@](O)(Cc4ccccc4)C[C@@H]3C2)cc1F (mixture of isomers) [Example 160, rac-(3aR,5r,6aS)-5-benzyl-2-(2-(3,5-difluoro-4-hydroxyphenyl)-2-hydroxyethyl)octahydro-cyclopenta[c]pyrrol-5-ol] | 7.01 | 
OC(CN1C[C@@H]2C[C@@](O)(Cc3ccccc3)C[C@@H]2C1)c1cnc(OCc2ccccc2)cn1 (mixture of isomers) [Example 163, rac-(3aR,5r,6aS)-5-benzyl-2-(2-(5-(benzyloxy)pyrazin-2-yl)-2-hydroxyethyl)octahydro-cyclopenta[c]pyrrol-5-ol] | ≤ 5.00 | < 5.00
Oc1ccc(C(O)CN2C[C@@H]3C[C@@](O)(Cc4ccccc4)C[C@@H]3C2)cn1 (mixture of isomers) [Example 181, rac-5-{2-[(3aR,5R,6aS)-5-benzyl-5-hydroxy-octahydrocyclopenta[c]pyrrol-2-yl]-1-hydroxyethyl}pyridin-2-ol] | ≤ 5.00 | < 5.00
Cc1ccc(C[C@]2(O)C[C@H]3CN(CC(O)c4ccc(O)cc4)C[C@H]3C2)cc1 (mixture of isomers) [Example 182, rac-(3aR,5R,6aS)-2-[2-hydroxy-2-(4-hydroxyphenyl)ethyl]-5-[(4-methylphenyl)methyl]-octahydrocyclopenta[c] pyrrol-5-ol] | 7.38 | 
OC(CN1C[C@@H]2C[C@@](O)(Cc3ccccc3)C[C@@H]2C1)c1ccc2[nH]nnc2c1 (mixture of isomers) [Example 186, rac-(3aR,5R,6aS)-2-[2-(1H-1,2,3-benzotriazol-5-yl)-2-hydroxyethyl]-5-benzyl-octahydrocyclopenta[c] pyrrol-5-ol] | 6.13 | 6.00 to 7.00
Oc1cnc(C(O)CN2C[C@@H]3C[C@@](O)(Cc4ccccc4)C[C@@H]3C2)cn1 (mixture of isomers) [Example 188, rac-(3aR,5r,6aS)-5-benzyl-2-(2-hydroxy-2-(5-hydroxypyrazin-2-yl)ethyl)octahydrocyclo-penta[c]pyrrol-5-ol] | ≤ 5.00 | < 5.00
COc1ccc(C[C@]2(O)C[C@H]3CN(CC(O)c4ccc(O)cc4)C[C@H]3C2)cc1 (mixture of isomers) [Example 189, rac-(3aR,5r,6aS)-2-(2-hydroxy-2-(4-hydroxyphenyl)ethyl)-5-(4-methoxy-benzyl)octahydro-cyclopenta[c]pyrrol-5-ol] | 7.32 | 
Oc1ccc(C(O)CN2C[C@@H]3C[C@@](O)(Cc4ccccc4)C[C@@H]3C2)nc1F (mixture of isomers) [Example 191, rac-(3aR,5r,6aS)-5-benzyl-2-(2-(6-fluoro-5-hydroxypyridin-2-yl)-2-hydroxyethyl)octahydro-cyclopenta[c]pyrrol-5-ol] | 6.77 | 
COc1cccc(C[C@]2(O)C[C@H]3CN(CC(O)c4ccc(O)cn4)C[C@H]3C2)c1 (mixture of isomers) [Example 196, rac-((3aR,r,6aS)-2-(2-hydroxy-2-(5-hydroxypyridin-2-yl)ethyl)-5-(3-meth-oxybenzyl)octahydro-cyclopenta[c]pyrrol-5-ol] | 7.18 | 
CO[C@@]1(Cc2ccccc2)C[C@H]2CN(CC(O)c3ccc(O)c(F)n3)C[C@H]2C1 (mixture of isomers) [Example 198, rac-6-(2-((3aR,5r,6aS)-5-benzyl-5-methoxyhexahydrocyclo-penta[c]pyrrol-2(1H)-yl)-1-hydroxyethyl)-2-fluoropyridin-3-ol] | 6.32 | 

These reach a higher pIC50 [1]. Values come first.

pIC50 [1] | pIC50 [2] | Structure (SMILES)
7.75 |  | Oc1ccc(C(O)CN2C[C@@H]3C[C@@](O)(Cc4ccc(F)cc4)C[C@@H]3C2)nc1 (mixture of isomers) [Example 168, rac-(3aR,5r,6aS)-5-(4-fluorobenzy)-2-(2-hydroxy-2-(5-hydroxypyridin-2-yl)ethyl)octahydrocyclo-penta[c]pyrrol-5-ol]
7.66 |  | Oc1ccc(C(O)CN2C[C@@H]3C[C@@](O)(Cc4ccc(F)cc4)C[C@@H]3C2)cc1F (mixture of isomers) [Example 171, rac-(3aR,5r,6aS)-2-(2-(3-fluoro-4-hydroxyphenyl)-2-hydroxyethyl)-5-(4-fluorobenzyl)octahydro-cyclopenta[c]pyrrol-5-ol]
7.49 |  | CO[C@@]1(Cc2ccccc2)C[C@H]2CN(CC(O)c3ccc(O)c(F)c3)C[C@H]2C1 (mixture of isomers) [Example 175, rac-4-(2-((3aR,5r,6aS)-5-benzyl-5-methoxyhexahydrocyclo-penta[c]pyrrol-2(1H)-yl)-1-hydroxyethyl)-2-fluorophenol]
7.49 |  | CO[C@@]1(Cc2ccccc2)C[C@H]2CN(CC(O)c3ccc(O)cc3)C[C@H]2C1 (mixture of isomers) [Example 176, rac-4-(2-((3aR,5r,6aS)-5-benzyl-5-methoxyhexahydrocyclo-penta[c]pyrrol-2(1H)-yl)-1-hydroxyethyl)phenol]
7.50 |  | CO[C@@]1(Cc2ccccc2)C[C@H]2CN(CC(O)c3ccc(O)cn3)C[C@H]2C1 (mixture of isomers) [Example 177, rac-6-(2-((3aR,5r,6aS)-5-benzyl-5-methoxyhexahydrocyclo-penta[c]pyrrol-2(1H)-yl)-1-hydroxyethyl)pyridin-3-ol]
7.46 |  | Cc1ccccc1C[C@]1(O)C[C@H]2CN(CC(O)c3ccc(O)cc3)C[C@H]2C1 (mixture of isomers) [Example 185, rac-(3aR,5r,6aS)-2-(2-hydroxy-2-(4-hydroxyphenyl)ethyl)-5-(2-methylbenzyl)octahydro-cyclopenta[c]pyrrol-5-ol]
7.54 |  | COc1cccc(C[C@]2(O)C[C@H]3CN(CC(O)c4ccc(O)cc4)C[C@H]3C2)c1 (mixture of isomers) [Example 195, rac-(3aR,5r,6aS)-2-(2-hydroxy-2-(4-hydroxyphenyl)ethyl)-5-(3-methoxy-benzyl)octahydro-cyclopenta[c]pyrrol-5-ol]
